# Measured values taken from US11747352B2 (Concordia University, Inc., priority 2017, dated 2023).
# Where two headings read alike, the source gives them in different places. Marks after values point to notes of the source that are not given here.
# How the values were obtained:
# [1] = cited from earlier work
# CYP3A5 [2] = target: T1, CYP3A5 (Homo sapiens, UniProt P20815); settings: cited from earlier work
# CYP3A = settings: cited from earlier work
# [3] = Eplerenone metabolism via pooled human liver microsomes (HLM150); assay type: in vitro ADME; settings: human, pooled human liver microsomes (HLM150, 150 donors), HLM 150, Corning/BD
# [4] = test system: human liver microsomes (HLM150); assay: as above; assay type: in vitro ADME; settings: for Vmax: HLM 150, Corning/BD
# [5] = test system: human liver microsomes (HLM, Xenotech); settings: cited from earlier work
# plasma protein = settings: cited from earlier work; for Protein binding %: Table of Tyrosine Kinase Inhibitor Substrates
# [6] = cited from earlier work; for F %: Table of Tyrosine Kinase Inhibitor Substrates, CYP3A4
# [7] = cited from earlier work; for T½: Table of Tyrosine Kinase Inhibitor Substrates
# CYP3A5 [8] = target: T1, CYP3A5; assay: Tacrolimus metabolism by rhCYP3A5 (Kamdem et al. 2005); assay type: in vitro ADME; settings: rhCYP3A5 vs rhCYP3A4
# [9] = substrate: COC(=O)[C@@H]1CC2=CC(=O)CC[C@]2(C)[C@@]23O[C@@H]2C[C@@]2(C)[C@@H](CC[C@@]24CCC(=O)O4)[C@H]13; assay: cells, lysate or membranes named; assay type: in vitro ADME, human
molecule,measurement,setting,value
"COC(=O)[C@H]1[C@H]2[C@@H]3CC[C@@]4(CCC(=O)O4)[C@@]3(C)C[C@H]3O[C@@]23[C@@]2(C)CCC(=O)C=C2[C@@H]1O [6OH-EP, 6β-hydroxyeplerenone]",Compound Type,[1]; SimCYP model parameter,Neutral
same,Blood/plasma ratio,[1],1
"COC(=O)[C@@H]1CC2=CC(=O)CC[C@]2(C)[C@@]23O[C@@H]2C[C@@]2(C)[C@@H](CC[C@@]24CC(O)C(=O)O4)[C@H]13 (stereo partly drawn) [21OH-EP, 21-hydroxyeplerenone]",Compound Type,[1]; SimCYP model parameter,Neutral
same,Blood/plasma ratio,[1],1
Cc1nnc2n1-c1ccc(Cl)cc1C(c1ccccc1)=NC2 [Alprazolam],CYP3A5 (% Metabolism),CYP3A5 [2],<10%
same,All CYP3A (% Metabolism),CYP3A,62%
COC(=O)[C@@H]1CC2=CC(=O)CC[C@]2(C)[C@@]23O[C@@H]2C[C@@]2(C)[C@@H](CC[C@@]24CCC(=O)O4)[C@H]13 [Eplerenone],Permeability model Caco-2,[1]; Caco-2,Caco-2 (24* 10^−6 cm/s)
same,Compound Type,[1]; SimCYP model parameter,Neutral
same,ka,[1]; SimCYP model parameter,1.647 h⁻¹
same,Km at 10 min,[3]; 6β-OH metabolite formation,473 µM
same,Km at 10 min,[3]; 21-OH metabolite formation,197 µM
same,Vmax,[4]; 6β-OH metabolite formation,1493 pmol/min/mg
same,Vmax,[4]; 21-OH metabolite formation,216 pmol/min/mg
same,ISEF for recombinant CYP3A4/5,"[4]; HLM 150 vs rhCYP3A4 and rhCYP3A5 clearances, Eq. 1",1.0
same,Km,[5]; 6β-OH metabolite formation,217 µM
same,Vmax,[5]; 6β-OH metabolite formation,973 pmol/min/mg
same,Km,[5]; 21-OH metabolite formation,211 µM
same,Vmax,[5]; 21-OH metabolite formation,143 pmol/min/mg
C#Cc1cccc(Nc2ncnc3cc(OCCOC)c(OCCOC)cc23)c1 [Erlotinib],Protein binding %,plasma protein,95%
COc1cc2ncnc(Nc3ccc(F)c(Cl)c3)c2cc1OCCCN1CCOCC1 [Gefitinib],F %,[6],59%
same,Protein binding %,plasma protein,90%
same,T½,[7],6 to 49 h
CN1C(C(=O)Nc2ccccn2)=C(O)c2sc(Cl)cc2S1(=O)=O [Lomoxicam],BIOAVAILABILITY IM,"[6]; in vivo, im",IM: 87%
same,HALF LIFE,[7]; in vivo,4 h
Cc1cccc(C)c1OCC(C)N (stereo not drawn) [Mexiletine],ORAL BIOAVAILABILITY,[6]; Table CYP2D6,80-90% ^
same,HALF LIFE,[7]; Table CYP1A2,10 to 12 h
same,HALF LIFE,[7]; Table CYP2D6,6 to 17 h
Cc1ncc2n1-c1ccc(Cl)cc1C(c1ccccc1F)=NC2 [Midazolam],CYP3A5 (% Metabolism),CYP3A5 [2],43%
same,AUC fold higher than average,CYP3A4/5,2.3 fold
same,AUC fold lower than the mean,CYP3A4/5,4.1 fold
same,All CYP3A (% Metabolism),CYP3A,92%
CC(C)(O)c1ccccc1CC[C@@H](SCC1(CC(=O)O)CC1)c1cccc(/C=C/c2ccc3ccc(Cl)cc3n2)c1 [Montelukast],ORAL BIOAVAILABILITY,[6]; Table CYP2C9,64-73% ^
same,PLASMA PROTEIN BINDING,plasma protein; Table CYP2C9,>99%
same,HALF LIFE,[7]; Table CYP2C9,2.7 to 5.5 h
OC(CNCC(O)C1CCc2cc(F)ccc2O1)C1CCc2cc(F)ccc2O1 (stereo not drawn) [Nebivolol],ORAL BIOAVAILABILITY,[6]; Table CYP2D6,12-96% ^
same,HALF LIFE,[7]; Table CYP2D6,12 to 19 h
[H]/N=C(/N)N/C(=N/[H])NCCc1ccccc1 [Phenformin],ORAL BIOAVAILABILITY,[6]; Table CYP2D6,40-60% ^
same,HALF LIFE,[7]; Table CYP2D6,4 to 13 h
O=C1NC(=O)C(c2ccccc2)(c2ccccc2)N1 [Phenytoin],ORAL BIOAVAILABILITY,[6]; Table CYP2C9,20-90% ^
same,HALF LIFE,[7]; Table CYP2C9,14 to 22 h
CC(=O)[C@H]1CC[C@H]2[C@@H]3CCC4=CC(=O)CC[C@]4(C)[C@H]3CC[C@]12C [Progesterone],PLASMA PROTEIN BINDING,plasma protein; Table CYP2C19,96-99% ^
CC(C)NCC(O)COc1cccc2ccccc12 (stereo not drawn) [Propranolol],ORAL BIOAVAILABILITY,[6]; Table CYP2D6,30-70% ^
same,HALF LIFE,[7]; Table CYP2D6,3 to 6 h
C=C[C@H]1C[N@@]2CC[C@H]1C[C@@H]2[C@@H](O)c1ccnc2ccc(OC)cc12 [Quinidine],ORAL BIOAVAILABILITY,[6]; Table CYP3A4,70-80% ^
same,All CYP3A (% Metabolism),CYP3A,93%
CCCN1CCCC[C@H]1C(=O)Nc1c(C)cccc1C [Ropivacaine],ORAL BIOAVAILABILITY,"[6]; Table CYP1A2, printed as IV",87-98% - IV
same,HALF LIFE,[7]; Table CYP1A2,5 to 7 h
CC(C)(C)NC(=O)[C@@H]1C[C@@H]2CCCC[C@@H]2CN1C[C@@H](O)[C@H](Cc1ccccc1)NC(=O)[C@H](CC(N)=O)NC(=O)c1ccc2ccccc2n1 [Saquinavir],CYP3A5 (% Metabolism),CYP3A5 [2],11%
same,All CYP3A (% Metabolism),CYP3A,99%
CCN(CC)CCNC(=O)c1c(C)[nH]c(/C=C2\C(=O)Nc3ccc(F)cc32)c1C [Sunitinib],F %,[6],50%
same,Protein binding %,plasma protein,95%
same,T½,[7],40 to 60 h
CCCCCc1cc(O)c2c(c1)OC(C)(C)[C@@H]1CCC(C)=C[C@@H]21 [THC],ORAL BIOAVAILABILITY,[6]; Table CYP2C9,10-35% ^
same,HALF LIFE,[7]; Table CYP2C9,1.6 to 59 h
C=CC[C@@H]1/C=C(\C)C[C@H](C)C[C@H](OC)[C@H]2O[C@@](O)(C(=O)C(=O)N3CCCC[C@H]3C(=O)O[C@H](/C(C)=C/[C@@H]3CC[C@@H](O)[C@H](OC)C3)[C@H](C)[C@@H](O)CC1=O)[C@H](C)C[C@@H]2OC [Tacrolimus],ORAL BIOAVAILABILITY,[6]; Table CYP3A4,17-31% ^
same,higher catalytic efficiency via CYP3A5,CYP3A5 [8],60%
Cc1nnc2n1-c1ccc(Cl)cc1C(c1ccccc1Cl)=NC2 [Triazolam],CYP3A5 (% Metabolism),CYP3A5 [2],25%
same,All CYP3A (% Metabolism),CYP3A,92%
Cc1ccc(Nc2nccc(N(C)c3ccc4c(C)n(C)nc4c3)n2)cc1S(N)(=O)=O [pazopanib],F %,[6],14-21%
same,Protein binding %,plasma protein,>99.5%
same,T½,[7],30.9 to 31.9 h
CNC(=O)c1cc(Oc2ccc(NC(=O)Nc3ccc(Cl)c(C(F)(F)F)c3)cc2)ccn1 [sorafenib],F %,[6],38-49%
same,Protein binding %,plasma protein,99.5%
same,T½,[7],25 to 48 h
"rhCYP3A5 (Homo sapiens) (protein, purchased BD Biosciences/Corning) MDLIPNLAVETWLLLAVSLVLLYLYGTRTHGLFKRLGIPGPTPLPLLGNVLSYRQGLWKFDTECYKKYGKMWGTYEGQLPVLAITDPDVIRTVLVKECYSVFTNRRSLGPVGFMKSAISLAEDEEWKRIRSLLSPTFTSGKLKEMFPIIAQYGDVLVRNLRREAEKGKPVTLKDIFGAYSMDVITGTSFGVNIDSLNNPQDPFVESTKKFLKFGFLDPLFLSIILFPFLTPVFEALNVSLFPKDTINFLSKSVNRMKKSRLNDKQKHRLDFLQLMIDSQNSKETESHKALSDLELAAQSIIFIFAGYETTSSVLSFTLYELATHPDVQQKLQKEIDAVLPNKAPPTYDAVVQMEYLDMVVNETLRLFPVAIRLERTCKKDVEINGVFIPKGSMVVIPTYALHHDPKYWTEPEEFRPERFSKKKDSIDPYIYTPFGTGPRNCIGMRFALMNMKLALIRVLQNFSFKPCKETQIPLKLDTQGLLQPEKPIVLKVDSRDGTLSGE",Km,"[9]; other: 6β-OH metabolite formation, rhCYP3A5 (printed rhCYPA5)",142 mcM
same,Km,"[9]; other: 21-OH metabolite formation, rhCYP3A5",72 mcM
